This is an account of results in ChEMBL document CHEMBL1201862, “PubChem BioAssay data set” (2004).

The term GI50 denotes the concentration at which growth is held to half of that of the control.

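96-well plates; 48 h exposure; 5 concentrations. Endpoints by linear interpolation between flanking doses. Not reached: highest tested concentration assigned. GI50 marks 50% less growth.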 Activity calls are given as the source filed them. Rule as the data show it: active = GI50 up to about 1.1 µM and inactive = higher.

Among the test systems are A498; ACHN; HOP-18; HOP-62; K562; KM12; M14; NCI-H522; OVCAR-3; OVCAR-8; RXF 393; SF-268; SF-295; SK-MEL-2; SK-MEL-5; BT-549; T47D; MDA-MB-231; MDA-N; NCI/ADR-RES.
What all share (assay): DTP human tumour cell line panel, 48 h

On to `COC1=CC(=O)C(O)=C(CC2(C)C(C)CCC3(C)C2CCCC3(C)C)C1=O` (stereo not drawn), for which the GI50 in the assay on A498 was 10.1 µM (inactive); in the assay with ACHN it was 3.89 µM (inactive); with HOP-18 it was 2.65 µM (inactive); in the assay with HOP-62, 3.64 µM (inactive); with K562, 2.7 µM (inactive); in the assay on KM12, 6.44 µM (inactive). For the same compound, the GI50 with M14 was 2.18 µM (inactive); with NCI-H522, 2.7 µM (inactive); in the assay with OVCAR-3, 5.43 µM (inactive); in the assay with OVCAR-8, 4.57 µM (inactive); with RXF 393, 2.31 µM (inactive); in the assay with SF-268 it was 4.37 µM (inactive). Moreover, the figures for the GI50 in the assay with SF-295, in the assay on SK-MEL-2 and in the assay on SK-MEL-5 were 2.89 µM (inactive), 3.06 µM (inactive) and 3.76 µM (inactive), respectively.

With `O=C(Nc1cccc(Cc2cccc(NC(=O)c3ccccc3)c2)c1)c1ccccc1`, the GI50 in the assay on A498 is 17.8 µM (inactive); in the assay on ACHN it was 28.2 µM (inactive); in the assay with HOP-18, 34.3 µM (inactive); in the assay on HOP-62 it was 22 µM (inactive); in the assay with K562, > 100 µM (inactive); in the assay with KM12 it was > 100 µM (inactive). In addition, the GI50 was 55.1 µM (inactive) in the assay with M14; 25.2 µM (inactive) in the assay with NCI-H522; 26.9 µM (inactive) in the assay on OVCAR-3; 19.5 µM (inactive) with OVCAR-8; 14.8 µM (inactive) in the assay with RXF 393; 34 µM (inactive) in the assay with SF-268. Further, the GI50 in the assay on SF-295 was 16.5 µM (inactive); in the assay with SK-MEL-2, 52.4 µM (inactive); with SK-MEL-5 it was 25.1 µM (inactive).

On to `O=C(COc1ccc2c(=O)cc(-c3ccccc3)oc2c1)N1CCN(c2ccccc2)CC1`, for which the GI50 is > 10 µM (inactive) with A498; 50.8 µM (inactive) with ACHN; 41.9 µM (inactive) in the assay on HOP-18; 78.7 µM (inactive) in the assay on HOP-62; 18 µM (inactive) in the assay on K562; 60.5 µM (inactive) with KM12. Besides, the GI50 is 76.6 µM (inactive) in the assay on M14; 18.8 µM (inactive) in the assay with NCI-H522; 42.9 µM (inactive) with OVCAR-3; 26.4 µM (inactive) in the assay on OVCAR-8; 16.7 µM (inactive) in the assay with RXF 393; 46.2 µM (inactive) in the assay on SF-268. Moreover, the GI50 was 52.6 µM (inactive) with SF-295, 21.1 µM (inactive) in the assay with SK-MEL-2 and 25.4 µM (inactive) in the assay with SK-MEL-5.

Regarding `Cc1c(Cl)ccc2c1NC(=O)C2(O)CC(=O)c1cccc2ccccc12` (stereo not drawn), the GI50 in the assay on A498 was 69.5 µM (inactive); in the assay on ACHN, > 100 µM (inactive); in the assay with HOP-18, 77.3 µM (inactive); in the assay with HOP-62, > 100 µM (inactive); with K562, 85.5 µM (inactive); in the assay on KM12, 41.9 µM (inactive). Besides, the GI50 was > 100 µM (inactive) in the assay on M14; 43.8 µM (inactive) in the assay on NCI-H522; 78.3 µM (inactive) with OVCAR-3; > 100 µM (inactive) in the assay on OVCAR-8; 99.3 µM (inactive) in the assay with RXF 393; > 100 µM (inactive) with SF-268. For the same compound, the values for the GI50 in the assay with SF-295, with SK-MEL-2 and in the assay on SK-MEL-5 were > 100 µM (inactive), > 100 µM (inactive) and 34 µM (inactive), respectively.

Consider `CNCC(=O)Nc1ccc2c(c1)C(=O)c1ccc(NC(=O)CNC)cc1C2=O`, for which the GI50 with A498 was 14.9 µM (inactive); in the assay on HOP-18, < 0.01 µM (active); in the assay on HOP-62 it was 2.9 µM (inactive); with K562 it was 1.96 µM (inactive); in the assay on KM12, 0.767 µM (active); in the assay on M14 it was 2.55 µM (inactive). Further, the GI50 in the assay with NCI-H522 is 1.59 µM (inactive); in the assay on OVCAR-3 it was 3.05 µM (inactive); in the assay with OVCAR-8 it was 2.69 µM (inactive); in the assay with RXF 393, 7.31 µM (inactive); in the assay with SF-295, 5.3 µM (inactive); in the assay with SK-MEL-2, 3.66 µM (inactive). Moreover, the GI50 in the assay on SK-MEL-5 is 4.68 µM (inactive).

As to `N#CC1=C(O)NC(O)=C(C#N)C1c1ccc(C2C(C#N)=C(O)NC(O)=C2C#N)cc1`, the GI50 with A498 is > 100 µM (inactive); with ACHN it was > 100 µM (inactive); with HOP-18, > 100 µM (inactive); with HOP-62 it was > 100 µM (inactive); in the assay with K562, 53.2 µM (inactive); in the assay on KM12 it was > 100 µM (inactive). Moreover, the GI50 in the assay on M14 was > 100 µM (inactive); with NCI-H522, 19.7 µM (inactive); in the assay on OVCAR-3 it was > 100 µM (inactive); in the assay with OVCAR-8 it was > 100 µM (inactive); with RXF 393, > 100 µM (inactive); in the assay on SF-268, > 100 µM (inactive). Moreover, the GI50 in the assay with SF-295, in the assay on SK-MEL-2 and in the assay with SK-MEL-5 was > 100 µM (inactive) throughout.

For the compound `CSc1nc(NC2OC(COC(C)=O)C(OC(C)=O)C(OC(C)=O)C2OC(C)=O)c(/N=C/C=N/c2c(NC3OC(COC(C)=O)C(OC(C)=O)C(OC(C)=O)C3OC(C)=O)nc(SC)[nH]c2=O)c(=O)[nH]1` (stereo not drawn), the GI50 in the assay with A498, in the assay with ACHN, with HOP-18, in the assay on HOP-62, in the assay with K562 and in the assay on KM12 was > 100 µM (inactive) each time. In addition, the GI50 in the assay with M14, in the assay with NCI-H522, in the assay on OVCAR-3, in the assay on OVCAR-8, in the assay on RXF 393 and in the assay on SF-268 was > 100 µM (inactive) throughout. In addition, the GI50 with SF-295, in the assay with SK-MEL-2 and with SK-MEL-5 was > 100 µM (inactive) in each case.

As to `O=C1CCC[C@]2(CCCC(=O)N2)C1`, the GI50 in the assay on A498, with ACHN, in the assay with HOP-18, in the assay with HOP-62, in the assay on K562 and with KM12 was > 100 µM (inactive) in each case. The GI50 in the assay with M14, in the assay with NCI-H522, with OVCAR-3, with OVCAR-8, with RXF 393 and in the assay on SF-268 was > 100 µM (inactive) throughout. Moreover, the GI50 in the assay on SF-295, in the assay with SK-MEL-2 and in the assay with SK-MEL-5 was > 100 µM (inactive) in each case.

For `Cc1ccc(-c2cc(-c3ccco3)c(C#N)c(=O)n2C2OC(OC(=O)c3ccccc3)C(OC(=O)c3ccccc3)C2OC(=O)c2ccccc2)cc1` (stereo not drawn), the GI50 with A498 is > 100 µM (inactive); in the assay with ACHN, > 100 µM (inactive); with HOP-18, > 100 µM (inactive); in the assay with HOP-62, 43 µM (inactive); with K562, > 100 µM (inactive); in the assay with KM12, > 100 µM (inactive). Besides, the GI50 is 64.4 µM (inactive) in the assay with M14; 62.8 µM (inactive) in the assay on NCI-H522; 39.2 µM (inactive) with OVCAR-3; > 100 µM (inactive) in the assay with OVCAR-8; 24.9 µM (inactive) in the assay on RXF 393; 81.3 µM (inactive) in the assay on SF-268. Also, the GI50 is 59 µM (inactive) with SF-295 and > 100 µM (inactive) in the assay on SK-MEL-2.

For the compound `O=S(=O)(O)C(O)/C=C/c1ccccc1` (stereo not drawn), the GI50 in the assay with A498, with ACHN, in the assay on HOP-18, with HOP-62, with K562 and in the assay on KM12 was > 100 µM (inactive) in each case. The GI50 in the assay on M14, in the assay with NCI-H522, with OVCAR-3, in the assay with OVCAR-8, with RXF 393 and in the assay with SF-268 was > 100 µM (inactive) throughout. Besides, the GI50 in the assay on SF-295, in the assay on SK-MEL-2 and with SK-MEL-5 was > 100 µM (inactive) in each case.

For `CC1=C(N2CC2)C(=O)c2nc3n(c2C1=O)CCC3O` (stereo not drawn), the GI50 is 0.205 µM (active) with A498; 0.152 µM (active) with ACHN; 0.0171 µM (active) with BT-549; 36.6 µM (inactive) with HOP-18; 0.126 µM (active) in the assay on HOP-62; 0.472 µM (active) with K562. The 50% growth inhibitory concentration (GI50) is 0.233 µM (active) in the assay with KM12; 1.32 µM (inactive) with M14; 0.145 µM (active) with NCI-H522; 0.275 µM (active) in the assay on OVCAR-3; 0.201 µM (active) with OVCAR-8; 0.187 µM (active) with RXF 393. Besides, the GI50 was 0.104 µM (active) in the assay with SF-268; 0.166 µM (active) with SF-295; 0.7 µM (active) with SK-MEL-2; 0.0216 µM (active) in the assay with SK-MEL-5; 0.395 µM (active) with T47D.

As for `COc1c(C)c2c(c(O)c1C/C=C(\C)CCC(=O)O)C(=O)OC2` [MYCOPHENOLIC ACID], the GI50 in the assay with A498 was > 100 µM (inactive); in the assay with ACHN, 1.75 µM (inactive); in the assay on HOP-18 it was 16.1 µM (inactive); in the assay on HOP-62, 6.44 µM (inactive); in the assay with K562, 0.396 µM (active); with KM12, 0.944 µM (active). The GI50 in the assay with M14 is 1.58 µM (inactive); in the assay on MDA-MB-231 it was 2 µM (inactive); in the assay on MDA-N, 1.46 µM (inactive); in the assay on NCI-H522 it was 0.442 µM (active); in the assay on NCI/ADR-RES, 2.97 µM (inactive); with OVCAR-3, 2.91 µM (inactive). For the same compound, the GI50 with OVCAR-8 is 1.08 µM (active); with RXF 393, 2.78 µM (inactive); in the assay with SF-268, 1.37 µM (inactive); in the assay with SF-295 it was 0.632 µM (active); in the assay with SK-MEL-2, > 51.4 µM (inactive); with SK-MEL-5 it was 1.02 µM (active). The GI50 with T47D was 7.33 µM (inactive).
